This is an account of results in patent US8461328B2, “Tricyclic heterocyclic compounds, compositions and methods of use thereof” (Genentech, Inc., priority 2010, dated 2013).

What all share (type): biochemical
For one test, the target named is T1, JAK3 (Homo sapiens, UniProt P52333).
T1 construct: made in house; host or cells: SF9 insect cells (baculovirus)
Kind of test: JAK3 inhibition (Table 4). To be noted: read-out: JAK3 Ki.

The next test addresses T2, JAK1 (Homo sapiens, UniProt P23458).
T2 construct: made in house; host or cells: SF9 insect cells (baculovirus)
Kind of test: JAK1 inhibition (Table 4). To be noted: read-out: JAK1 Ki.

A further test addresses T3, TYK2 (Homo sapiens, UniProt P29597).
T3 construct: made in house; host or cells: SF9 insect cells (baculovirus)
T3 sequence (P29597 873-1187): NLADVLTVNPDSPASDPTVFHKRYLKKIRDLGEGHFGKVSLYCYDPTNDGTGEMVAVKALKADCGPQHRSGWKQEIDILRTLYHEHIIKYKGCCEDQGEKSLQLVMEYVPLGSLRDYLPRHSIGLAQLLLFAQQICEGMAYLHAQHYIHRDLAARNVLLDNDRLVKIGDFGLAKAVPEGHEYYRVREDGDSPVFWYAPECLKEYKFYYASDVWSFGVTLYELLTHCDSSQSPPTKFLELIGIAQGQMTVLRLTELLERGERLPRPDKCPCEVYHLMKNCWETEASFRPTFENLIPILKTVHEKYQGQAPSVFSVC
The test is described as follows: TYK2 inhibition (Table 4).

Another test addresses T4, JAK2 (Homo sapiens, UniProt O60674).
T4 construct: made in house; host or cells: SF9 insect cells (baculovirus)
The test is described as follows: JAK2 inhibition (Table 4). To be noted: read-out: JAK2 Ki.

T4 sequence (O60674 812-1132): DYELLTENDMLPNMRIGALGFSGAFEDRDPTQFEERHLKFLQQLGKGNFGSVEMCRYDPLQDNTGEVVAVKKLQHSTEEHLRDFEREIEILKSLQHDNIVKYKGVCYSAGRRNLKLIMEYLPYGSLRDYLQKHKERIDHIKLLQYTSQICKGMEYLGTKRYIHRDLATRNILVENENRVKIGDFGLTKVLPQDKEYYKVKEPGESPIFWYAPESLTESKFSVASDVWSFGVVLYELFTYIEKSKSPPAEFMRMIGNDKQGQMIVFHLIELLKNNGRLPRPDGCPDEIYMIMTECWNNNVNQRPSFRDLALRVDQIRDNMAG
T1 sequence (P52333 783-1124): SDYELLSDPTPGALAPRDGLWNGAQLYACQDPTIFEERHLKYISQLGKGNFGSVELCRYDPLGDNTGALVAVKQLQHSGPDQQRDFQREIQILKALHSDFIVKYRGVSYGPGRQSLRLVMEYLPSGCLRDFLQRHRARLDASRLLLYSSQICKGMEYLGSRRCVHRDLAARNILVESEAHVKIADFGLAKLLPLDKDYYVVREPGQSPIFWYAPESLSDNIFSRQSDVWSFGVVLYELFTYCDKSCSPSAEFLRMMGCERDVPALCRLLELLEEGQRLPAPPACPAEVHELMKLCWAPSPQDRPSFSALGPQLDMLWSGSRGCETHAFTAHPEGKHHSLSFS
T2 sequence (P23458 852-1154): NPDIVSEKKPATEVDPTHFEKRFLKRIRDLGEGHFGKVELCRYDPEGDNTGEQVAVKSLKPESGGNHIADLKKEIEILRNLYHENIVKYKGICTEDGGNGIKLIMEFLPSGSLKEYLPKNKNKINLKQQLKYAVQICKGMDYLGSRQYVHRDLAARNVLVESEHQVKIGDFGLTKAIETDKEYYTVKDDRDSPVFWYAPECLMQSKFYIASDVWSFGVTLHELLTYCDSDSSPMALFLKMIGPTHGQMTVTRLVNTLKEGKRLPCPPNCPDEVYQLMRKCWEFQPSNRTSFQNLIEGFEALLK

As a reminder, the Ki is a measure of affinity in units of concentration, obtained from inhibition or displacement. In the case of `C[C@@H](O)c1nc2cnc3[nH]ccc3c2n1[C@@H]1CCCN(C(=O)C2CC2)C1` [Example 794, Cyclopropyl-{(R)-3-[2-((R)-1-hydroxy-ethyl)-6H-1,3,5,6-tetraaza-as-indacen-1-yl]-piperidin-1-yl}-methanone], the Ki on JAK3 was found to be 1230 nM; at JAK1 it was 116 nM; on TYK2 it was 420 nM; on JAK2, 886 nM.

In the case of `CC(O)c1nc2cnc3[nH]ccc3c2n1C1CCN(CC(F)(F)F)CC1` (racemic) [Example 355, 1-{1-[1-(2,2,2-Trifluoro-ethyl)-piperidin-4-yl]-1,6-dihydro-1,3,5,6-tetraaza-as-indacen-2-yl}-ethanol], the Ki on JAK3 is 41.2 nM; at JAK1, 3.79 nM; at TYK2, 34.5 nM; at JAK2, 44.8 nM.

Turning to `CCN1CCC(n2nnc3cnc4[nH]ccc4c32)C(F)(F)C1` (racemic) [Example 533, 1-(1-Ethyl-3,3-difluoro-piperidin-4-yl)-1,6-dihydro-1,2,3,5,6-pentaaza-as-indacene], the Ki is 48.8 nM on JAK3, 9.05 nM on JAK1, 59.7 nM on TYK2 and 15.7 nM on JAK2.

Regarding `O=C(Cc1nc2cnc3[nH]ccc3c2n1C1CCCOC1)N1CCC(O)CC1` (racemic) [Example 986, 1-(4-Hydroxy-piperidin-1-yl)-2-[1-(tetrahydro-pyran-3-yl)-1,6-dihydro-1,3,5,6-tetraaza-as-indacen-2-yl]-ethanone], the Ki is 171 nM on JAK3, 17.5 nM on JAK1, 187 nM on TYK2 and 314 nM at JAK2.

In the case of `Cc1nc2cnc3[nH]ccc3c2n1C1CCC2CC(=O)NC2C1` (single isomer, unassigned) [Example 112a, 6-(2-Methyl-6H-1,2,3,5,6-tetraaza-as-indacen-1-yl)-octahydro-indol-2-one], the Ki turned out to be 300 nM on JAK3, 64.4 nM on JAK1, 630 nM on TYK2 and 58.3 nM at JAK2.

For `C[C@@H](O)c1nc2cnc3[nH]ccc3c2n1C1CCN(c2cccc(C#N)n2)CC1` [Example 702, 4-[2-((R)-1-Hydroxy-ethyl)-6H-1,2,3,5,6-tetraaza-as-indacen-1-yl]-3,4,5,6-tetrahydro-2H-[1,2]bipyridinyl-6′-carbonitrile], the Ki on JAK3 came out at 40.6 nM; on JAK1, 3.69 nM; at TYK2, 23.7 nM; on JAK2, 26.4 nM.

For the compound `Cc1nc2cnc3[nH]ccc3c2n1C1(C)CCN(C(=O)CC#N)CC1` [Example 741, 3-[4-Methyl-4-(2-methyl-6H-1,3,5,6-tetraaza-as-indacen-1-yl)-piperidin-1-yl]-3-oxo-propionitrile], the Ki at JAK3 is 1130 nM; at JAK1 it was 103 nM; at TYK2, 568 nM; on JAK2, 528 nM.

Turning to `N#CCC(=O)N1CCC[C@@H](n2nnc3cnc4[nH]ccc4c32)C1` [Example 19, 3-Oxo-3-[(R)-3-(6H-1,2,3,5,6-pentaaza-as-indacen-1-yl)-piperidin-1-yl]propionitrile], the Ki on JAK3 was found to be 24.5 nM; at JAK1, 1.49 nM; on TYK2, 20.3 nM; at JAK2, 3.72 nM.

Regarding `CNC(=O)c1nc2cnc3[nH]ccc3c2n1C1CCN(Cc2ccccc2)CC1` [Example 159, 1-(1-Benzyl-piperidin-4-yl)-1,6-dihydro-1,2,3,5,6-tetraaza-as-indacene-2-carboxylic acid methylamide], the Ki is 32.6 nM at JAK3, 20.6 nM at JAK1, 2330 nM at TYK2 and 23.8 nM at JAK2.

Turning to `CN1CC(c2nc3cnc4[nH]ccc4c3n2C2CCN(CCC#N)CC2)CC1=O` (racemic) [Example 384, 3-{4-[2-(1-Methyl-5-oxo-pyrrolidin-3-yl)-6H-1,3,5,6-tetraaza-as-indacen-1-yl]-piperidin-1-yl}-propionitrile], the Ki on JAK3 is 48.1 nM; at JAK1 it was 17.5 nM; on TYK2, 526 nM; on JAK2 it was 138 nM.
